Source: US10272144B2, “Compositions for and methods of treating and preventing targeting tumor associated carbohydrate antigens” (Board of Trustees of the University of Arkansas, priority 2013, dated 2019)
Values joined by “and” are separate entries in the source; they are usually repeats but may differ in a detail not shown here. Equal values may be shown once. “Also recorded” adds a separate entry of the source.

Tests used:
[1] = test system: MCF-7 cells; test: Toxicity against MCF-7 cells; format: cell-based, human; details: other experiments
[2] = test system: HCC1954 cells; test: Binding of serum IgG to HCC1954 cells (flow cytometry); format: cell-based, human; details: week 7 serum, 1:100 dilution; FIG. 14A
Experimental: (§1) HCC1954 cells were harvested with enzyme-free buffer, washed and incubated with pre-immune sera or post-immune sera collected from the patient at Week 7. Binding of IgG antibodies in the sera to HCC1954 cells was visualized with an FITC-conjugated mouse anti-human IgG. […] The dashed line histogram show binding of IgG from pre-immune serum to HCC1954 cells. The solid line histogram show binding of IgG from post-immune serum collected at week 7 to HCC1954 cells. 1:100 dilution of the serum was used for reactivity. FIG. 14B is a bar graph showing that serum from the patient collected 7 weeks post-immunization kills HCC1954 breast cancer cells in vitro. 1×10^4 cells were seeded in wells of 96-well plate in medium containing 10% FBS. […] Medium in control wells contained 10% FBS. Media were refreshed after 24 hours. 48 hours after addition of sera, supernatants were removed, cells fixed and stained with Crystal violet. Percentage of cytotoxicity was calculated based on cell number in control wells. Error bars represent SD based on three replications. The experiment was repeated three times. Two tail Student's t-test was used for comparison of means.

[3] = test system: NK cells; test: NK cell activation in mice; format: in vivo
[4] = test system: HCC1954 cells; test: Inhibition of migration of HCC1954 cells (transwell); format: cell-based, human; details: week 7 serum, 20 hours in transwells; FIG. 15
Experimental: Cells were starved overnight and then harvested and mixed with either pre-immune serum or postimmune serum. The cell-serum mixtures were incubated in transwells for 20 hours. The cells were then stained and those on the surface were wiped out. Migrated cells were then visualized under a light microscope and counted. Average over three replications with SD are shown.

[5] = test system: MDA-MB-231 cells; test: Apoptosis induction (annexin V/propidium iodide); format: cell-based, human; details: overnight incubation with sera; FIG. 16
Experimental: Cells were incubated with 10% FBS (control) or either pre-immune or post-immune sera overnight and then harvested and stained with annexin V-FITC (FL1) and propidium iodide (FL3). Quadrants J4, P4 and Q4 show apoptotic cells in control, pre-immune serum treated and post-immune serum treated cells, respectively.

[6] = test system: ZR-75-1 cells; test: Toxicity against ZR-75-1 cells; format: cell-based, human; details: other experiments
[7] = test system: cancer cells (HCC1954 and MDA-MB-231); test: Immunized plasma toxicity on cancer cells (both cell lines); format: cell-based, human; details: one line per subject
Description: (§2) Medium in control wells contained 10% FBS.

[8] = test system: NK cells; test: NK cell activation in vaccinated human patients; format: in vivo; details: human patients administered the vaccine
[9] = test system: MDA-MB-231 cells; test: Sensitization of tumor cells to docetaxel toxicity by post-immune serum; format: cell-based, human; details: 5 hours pre-incubation, docetaxel 24 hours; IC50 differs from FBS and pre-immune (P 6.21E-08, 0.002); FIG. 9
Experimental: MDA-MB-231 cells were cultured in RPMI medium containing 10% FBS overnight. Medium was then replaced with one that contained either pre-immune serum or post-immune serum. FBS was used as control. After 5 hours of incubation, docetaxel was added in serial dilutions into wells. 24 hours later wells were washed and live cells were fixed, stained and counted. Percentage of survival was calculated as the ratio of cell number at a given drug dose to the cell number at the “0” drug dose. Prism 5 software was used to fit dose response curves using survival data. IC50 of each curve was calculated.
MDA-MB-231 cells were cultured in RPMI medium containing 10% FBS overnight. Medium was then replaced with one that contained pre or post-immune sera. FBS was used as control. After 5 hours of incubation docetaxel was added in serial dilutions into wells. 24 hours later wells were washed and live cells were fixed, stained and counted. Percentage of survival was calculated as the ratio of cell number at a given drug dose to the cell number at the “0” drug dose. Prism 5 software was used to fit dose response curves using survival data. IC50 of each curve was calculated.

[10] = test system: multiple-antigen peptide (MAP) version of P10s; test: ELISA of anti-P10s antibodies in sera/plasma of vaccinated subjects; format: in vivo, human; details: for Immunized plasma binding to MAP (ELISA): one line per subject
Experimental: IgM and IgG fractions of serum antibodies from the immunized patient bind to MAP form of P10s in ELISA assays. ELISA plates were coated with 1 μg/well of the P10s MAP peptide in carbonate-bicarbonate buffer overnight. Serial dilutions were added after blocking wells in PBS containing 0.5% FBS and 0.2% Tween 20 for 1 h at 37° C. Serum dilutions were incubated for two hours at 37° C. After washing, wells were incubated with HRP-conjugated mouse anti-human IgM and IgG for 1 hour at 37° C., then substrate was added and the reaction was stopped after 20 minutes. Plates were read by an ELISA reader at […]. Titers were estimated from absorbance-versus-dilution curves by linear regression. The intercept of the regression line for each subject's pre-immune serum was defined as the absorbance cutoff for determining end-point titer for that subject, and the dilution where each sample's regression line crossed the subject's absorbance cutoff was defined to be the sample's end-point titer. Extrapolation beyond one dilution below the minimum or above the maximum actual dilutions was not allowed. This procedure normalized each subject's pre-immune titer to be 1:100, and subjects with a 10-fold or greater increase in end-point titer over the 1:100 titer are considered responders.
ELISA plates were coated with MAP version of P10s and reactivity of two-fold serial dilutions of pre- and post-immune sera was detected by HRP-conjugated anti-human IgG (FIG. 7A) and IgM (FIG. 7B). The endpoint titers shown in FIG. 7A and FIG. 7B were estimated from absorbance-versus-dilution curves by linear regression. The intercept of the regression line for each subject's pre-immune serum was the value used as the absorbance cutoff for determining end-point titer for that subject, and the dilution where each sample's regression line crossed the subject's absorbance cutoff was defined to be the sample's end-point titer. Extrapolation beyond one dilution below the minimum or above the maximum actual dilutions was not allowed. This procedure normalized each subject's pre-immune titer to be 1:100.
The presence of anti-P10s antibodies in the sera of patients before and after vaccination was assessed with ELISA. ELISA plates were coated with 1 μg/well of the multiple-antigen peptide (MAP) version of P10s in carbonate-bicarbonate buffer (Sigma-Aldrich, St. Louis, Mo.) overnight. Serial 2-fold dilutions of plasma and serum samples, from 1:100 (dilution step 0) to a final dilution of 1:12800 (dilution step 7), were added after blocking wells with PBS containing 0.5% FBS and 0.2% Tween 20 (Blocking buffer) for 1 h at 37° C. Serum dilutions in blocking buffer were incubated for two hours at 37° C. After washing, wells were incubated with HRP-conjugated mouse anti-human IgM and IgG (Sigma-Aldrich) for 1 hour at 37° C. Then Tetramethylbenzidine substrate (Sigma-Aldrich) was added and the reaction was stopped after 20 minutes. Plates were read using an ELISA reader at […].
The resulting absorbance-versus-dilution curves were used to estimate normalized endpoint titers as follows. (1) A linear regression of absorbance versus dilution step was performed on the serial dilutions of each sample from each subject, in which dilution steps were numbered as described above. (2) The intercept of the regression line for each subject's pre-immune sample was the value used as the absorbance cutoff for determining the endpoint titers of all samples collected from that subject. (3) The dilution step where each sample's regression line crossed the subject's absorbance cutoff was determined and called X(c), and the normalized endpoint titer was estimated from X(c) as Titer=1:(100*2^X(c)). This procedure normalized each subject's pre-immune titer to be 1:100. […]

[11] = test system: HCC1954 cells; test: Serum cytotoxicity on HCC1954 cells (Example 5 patient); format: cell-based, human; details: week 7 serum, 10%, 48 hours; FIG. 14B
Experimental: as §1

[12] = test system: MCF-10A cells; test: Cytotoxicity of plasma on MCF-10A; format: cell-based, human; details: 10% plasma, 24 hours (up to 72 hours); non-tumorigenic line; FIG. 12
Experimental: Pictures were taken after 24 hours of incubation with 10% plasma of the indicated subjects.
as §2

[13] = test system: stage IV breast cancer patients; test: Phase I trial: clinical response (disease progression); format: in vivo, human; details: one line per subject, concurrent chemotherapy
Description: The P10s-PADRE vaccine was developed for, inter alia, treatment of breast cancer patients with high risk of disease relapse. In the Phase I trial, research participants were restricted to females with histological or cytological confirmed stage IV breast cancer. Women 18 years of age or older, of all races, with histologically or cytologically confirmed stage IV breast cancer were eligible, and subjects were enrolled after providing written, informed consent. Disease staging was done according to the American Joint Commission on Cancer (AJCC), sixth edition. The following eligibility criteria were used: The cancer may have been newly diagnosed metastatic or relapsed after primary or adjuvant therapy and must not have required a treatment change for 2 months. Treatments with anti-estrogen therapy or chemotherapy were allowed. The chemotherapy regimen could not contain steroids in the pre- or post-supportive-care medications. […] Subjects had to be immunocompetent as measured by responsiveness to two recall antigens by skin testing. […]

[14] = test system: metastatic HER2+ Breast Cancer; test: Clinical course of patient with metastatic HER2+ breast cancer (PET scans); format: in vivo, human; details: one patient, on continued Vinorelbine and Trastuzumab; after initial increased PET uptake
[15] = test system: HLA-DR; details: cited from earlier work

H-Trp-Arg-Tyr-Thr-Ala-Pro-Val-His-Leu-Gly-Asp-Gly-dAla-Lys-CHAla-Val-Ala-Ala-Trp-Thr-Leu-Lys-Ala-Ala-dAla-NH2 [P10s-PADRE]
toxicity [1]: no toxicity | binding of vaccine-induced serum to cells [2]: bound | NK cell activation [3]: no NK activation | migration of cells [4]: inhibited the migration | apoptosis [5]: induced apoptosis | toxicity [6]: toxicity was observe | Immunized plasma toxicity on cancer cells ([7]; 300 μg peptide per vaccination): Yes | Immunized plasma toxicity on cancer cells ([7]; 500 μg peptide per vaccination, subject #5: high background toxicity in preimmune plasma): Yes (2×) and No† | NK cell activation [8]: NK cells were activated | effect of pre-incubation with post-immunization serum on docetaxel toxicity [9]: sensitized tumor cells to docetaxel toxicity | Immunized plasma binding to MAP (ELISA) ([10]; 300 μg peptide per vaccination): Yes | Immunized plasma binding to MAP (ELISA) ([10]; 500 μg peptide per vaccination): Yes | normalized endpoint titers, higher dose cohort vs lower dose cohort ([10]; 500 μg vs 300 μg, FIG. 10): higher normalized endpoint titers | anti-peptide IgG persistence ([10]; Example 5 patient): remained high | anti-peptide IgM persistence ([10]; Example 5 patient): returned back to the baseline by week 19 | time course of anti-peptide IgM and IgG ([10]; Example 5 patient, FIG. 13): peaked at week seven | IgG response to P10s MAP peptide form after immunization ([10]; all six subjects, FIG. 10): persistent IgG response | IgG and IgM response to the vaccine ([10]; all subjects of Example 3, FIGS. 4, 5): All subjects displayed an IgG and IgM response | increase of anti-peptide serum IgG normalized endpoint titer at week 7 compared to pre-immune ([10]; subject #2 (300 μg), lowest of range): 31 folds | increase of anti-peptide serum IgG normalized endpoint titer at week 7 compared to pre-immune ([10]; subjects #5 and #6 (500 μg), highest of range): 256 folds | persistence of anti-P10s titer ([10]; three subjects evaluated further): starts to drop one year after the last immunization | cell death on incubation with post-immunization serum [11]: significant stimulation of cell death | toxicity of plasma [12]: No toxicity | Disease Progression ([13]; 300 μg peptide per vaccination): Stable; also recorded: Progressed | Disease Progression ([13]; 500 μg peptide per vaccination): Stable | lung lesions after vaccination [14]: improvement of their lung lesions

dAla-Lys-CHAla-Val-Ala-Ala-Trp-Thr-Leu-Lys-Ala-Ala-dAla [PADRE]
number of the 16 most common types of HLA-DR with which complexes are formed [15]: at least 15
